# Assays:
# [1] = tested on: C. albicans; assay: Sustained inhibition biofilm assay, fungal; format: cell-based, Candida albicans; details: sustained inhibition assay; C. albicans; 1% amino acid (unless specifically noted); p≤0.001
# Description: (§1) Two types of biofilm assays were performed: a sustained inhibition assay and a disruption assay. The sustained inhibition assay assesses the compound's ability to prevent biofilm development throughout all stages of biofilm formation, while the disruption assay assesses the compound's ability to break up an existing mature biofilm. These assays are described in detail in the following article: Lohse, M. B., Gulati, M., Valle Arevalo, A., Fishburn, A., Johnson, A. D., and Nobile, C. […] Antimicrobial Agents and Chemotherapy 61: e02749-16.
# (§2) All bacterial biofilm solutions were prepared in Trypic Soy Broth (TSB), supplemented with 1% glucose (henceforth referred to as TSB-G). All subsequent procedures were performed in a manner that maintained sterility. A solution of each amino acid to be tested was prepared in weight to volume concentrations ranging from 0.1-5.0%. Amino acids were also tested in combinations. Compound solutions were homogenized with gentle agitation in the dark (4° C., 24 hours) before use.
# (§3) Fungal strains were streaked on Yeast Peptone Dextrose (YPD) agar plates and incubated at 30° C. for 48 hours. A single colony from each strain to be tested was inoculated into YPD broth and grown for 12 hours, at 30° C., shaking at 225 rpm. […] The cells were allowed to adhere to the plate for 90 minutes at 37° C. with shaking (350 rpm). […] The plate was further incubated for 24 hours at 37° C. with shaking (350 rpm). Media was carefully aspirated and the biofilm was measured by optical density at 600 nm. […] The cells were allowed to adhere to the plate for 90 minutes at 37° C. with shaking (350 rpm). […] The plate was further incubated for 24 hours at 37° C. with shaking (350 rpm). […] The plate was further incubated for 24 hours at 37° C. with shaking (350 rpm). Media was carefully aspirated and the biofilm was measured by optical density at 600 nm.
# [2] = tested on: bacteria (S. aureus) biofilm and fungal (C. albicans) biofilm; assay: Disruption biofilm assay, bacterial and fungal taken together; format: cell-based; details: disruption assay; bacterial and fungal biofilm; 1% amino acid (unless specifically noted); p≤0.001
# Description: (§4) Two types of biofilm assays were performed: a sustained inhibition assay and a disruption assay. The sustained inhibition assay assesses the compound's ability to prevent biofilm development throughout all stages of biofilm formation, while the disruption assay assesses the compound's ability to break up an existing mature biofilm. These assays are described in detail in the following article: Lohse, M. B., Gulati, M., Valle Arevalo, A., Fishburn, A., Johnson, A. D., and Nobile, C. J. (2017) Assessment and optimizations of Candida albicans in vitro biofilm assays. Antimicrobial Agents and Chemotherapy 61: e02749-16.
# (§5) For fungal biofilm assays, all solutions were prepared in RPMI 1640 medium. All bacterial biofilm solutions were prepared in Trypic Soy Broth (TSB), supplemented with 1% glucose (henceforth referred to as TSB-G). All subsequent procedures were performed in a manner that maintained sterility. A solution of each amino acid to be tested was prepared in weight to volume concentrations ranging from 0.1-5.0%. Amino acids were also tested in combinations. Compound solutions were homogenized with gentle agitation in the dark (4° C., 24 hours) before use.
# (§6) Fungal strains were streaked on Yeast Peptone Dextrose (YPD) agar plates and incubated at 30° C. for 48 hours. A single colony from each strain to be tested was inoculated into YPD broth and grown for 12 hours, at 30° C., shaking at 225 rpm. For the fungal biofilm inhibition assay, 1 μl of saturated overnight cell culture was added to either 80 μL of RPMI-1640 or RPMI-1640 supplemented with the amino acid compound solution to be tested, in a 384-well plate. […] Media was carefully aspirated and the biofilm was measured by optical density at 600 nm. […] Media was carefully aspirated and the biofilm was measured by optical density at 600 nm. […]
# (§7) Bacterial strains were streaked on Blood Agar plates (5% sheep blood in Tryptic Soy Agar) and incubated at 37° C. for 24 hours. […] Media was carefully aspirated and the biofilm was measured by optical density at 600 nm. […]
# [3] = tested on: C. albicans; assay: Disruption biofilm assay, fungal; format: cell-based, Candida albicans; details: disruption assay; C. albicans; 1% amino acid (unless specifically noted); p≤0.001
# Description: as §1, §2, §3
# [4] = tested on: bacteria (S. aureus) biofilm and fungal (C. albicans) biofilm; assay: Sustained inhibition biofilm assay, bacterial and fungal taken together; format: cell-based; details: sustained inhibition assay; bacterial and fungal biofilm; 1% amino acid (unless specifically noted); p≤0.001
# Description: as §4, §5, §6, §7
smiles,measurement,setting,value
"N[C@@H](CC(=O)O)C(=O)O [Aspartic Acid, L-aspartic acid]",Reduce F Biofilm,[1],●● (two dots [ie. ••] signifies major effect (greater than about 30% change))
same,Reduce Both,[2],●● (two dots [ie. ••] signifies major effect (greater than about 30% change))
same,Reduce F Biofilm,[3],●● (two dots [ie. ••] signifies major effect (greater than about 30% change))
same,Reduce Both,[4],●● (two dots [ie. ••] signifies major effect (greater than about 30% change))
